Laboratory results published in ChEMBL document CHEMBL2417379, “Anti-inflammatory and anti-apoptotic effects of (RS)-glucoraphanin bioactivated with myrosinase in murine sub-acute and acute MPTP-induced Parkinson's disease” (Bioorg Med Chem, 2013).
Activity calls are given as the source filed them. The calls are words filed in the database; no cut-off is given here.

Legend:
[1] = test system: Mus musculus; assay: Neurotoxicity in C57BL/6 mouse assessed as IL-1beta localization in brain at 10 mg/kg, ip measured after 8 days by immunohistochemistry; type: toxicity, organism-based; design: dose 10 mg/kg, route intraperitoneal; settings: in vivo, 192 h
[2] = test system: Mus musculus; assay: Neuroprotective activity in C57BL/6 mouse sub-acute MPTP-induced parkinson's disease model assessed as increase in TH protein expression in striatum at 10 mg/kg, ip administered for 1 week prior to MPTP challenge measured after 8 days by immunohistochemistry relative to untreated control; type: functional, organism-based; design: dose 10 mg/kg
[3] = test system: Mus musculus; assay: Neuroprotective activity in C57BL/6 mouse sub-acute MPTP-induced parkinson's disease model assessed as increase in BDNF expression in brain at 10 mg/kg, ip administered for 1 week prior to MPTP challenge by immunohistochemistry; type: functional, organism-based; design: dose 10 mg/kg
[4] = test system: Mus musculus; assay: Antiparkinsonian activity in C57BL/6 mouse acute MPTP-induced parkinson's disease model assessed as reduction in MPTP-induced change in body weight at 10 mg/kg, ip administered for 1 week prior to MPTP challenge relative to control; type: functional, organism-based; design: dose 10 mg/kg
[5] = test system: Mus musculus; assay: Neurotoxicity in C57BL/6 mouse assessed as TH protein expression in striatum at 10 mg/kg, ip measured after 8 days by immunohistochemistry; type: toxicity, organism-based; design: dose 10 mg/kg, route intraperitoneal; settings: in vivo, 192 h
[6] = test system: Mus musculus; assay: Antiapoptotic activity against DA neurons in C57BL/6 mouse sub-acute MPTP-induced parkinson's disease model assessed as increase in Bcl2 expression at 10 mg/kg, ip administered for 1 week prior to MPTP challenge measured after 8 days by immunohistochemistry relative to untreated control; type: functional, organism-based; design: dose 10 mg/kg
[7] = test system: Mus musculus; assay: Neuroprotective activity in C57BL/6 mouse acute MPTP-induced parkinson's disease model assessed as increase in TH protein expression in striatum at 10 mg/kg, ip administered for 1 week prior to MPTP challenge measured after 8 days by immunohistochemistry relative to untreated control; type: functional, organism-based; design: dose 10 mg/kg
[8] = test system: Mus musculus; assay: Antiapoptotic activity against DA neurons in C57BL/6 mouse acute MPTP-induced parkinson's disease model assessed as increase in Bcl2 expression at 10 mg/kg, ip administered for 1 week prior to MPTP challenge measured after 8 days by immunohistochemistry relative to untreated control; type: functional, organism-based; design: dose 10 mg/kg
[9] = test system: Mus musculus; assay: Antiinflammatory activity against C57BL/6 mouse sub-acute MPTP-induced parkinson's disease model assessed as increase in Nrf2 localization in brain at 10 mg/kg, ip administered for 1 week prior to MPTP challenge by immunohistochemistry relative to untreated control; type: functional, organism-based; design: dose 10 mg/kg
[10] = test system: Mus musculus; assay: Antiapoptotic activity against C57BL/6 mouse sub-acute MPTP-induced parkinson's disease model assessed as protection against neuronal functional disruption at 10 mg/kg, ip administered for 1 week prior to MPTP challenge by golgi staining-based microscopic analysis relative to untreated control; type: organism-based; design: dose 10 mg/kg
[11] = test system: Mus musculus; assay: Neuroprotective activity in C57BL/6 mouse acute MPTP-induced parkinson's disease model assessed as prevention of loss of DA transporter expression in substantia nigra at 10 mg/kg, ip administered for 1 week prior to MPTP challenge by immunohistochemistry; type: functional, organism-based; design: dose 10 mg/kg
[12] = test system: Mus musculus; assay: Toxicity in C57BL/6 mouse assessed as Bcl2 expression in brain at 10 mg/kg, ip measured after 8 days by immunohistochemistry; type: organism-based; design: dose 10 mg/kg, route intraperitoneal; settings: in vivo, 192 h
[13] = test system: Mus musculus; assay: Antiapoptotic activity against DA neurons in C57BL/6 mouse acute MPTP-induced parkinson's disease model assessed as protection against neuronal functional disruption at 10 mg/kg, ip administered for 1 week prior to MPTP challenge by golgi staining-based microscopic analysis relative to untreated control; type: organism-based; design: dose 10 mg/kg
[14] = test system: Mus musculus; assay: Antiinflammatory activity against C57BL/6 mouse acute MPTP-induced parkinson's disease model assessed as reduction in IL-1beta localization in brain at 10 mg/kg, ip administered for 1 week prior to MPTP challenge measured after 8 days by immunohistochemistry relative to untreated control; type: functional, organism-based; design: dose 10 mg/kg
[15] = test system: Mus musculus; assay: Neuroprotective activity in C57BL/6 mouse sub-acute MPTP-induced parkinson's disease model assessed as increase in NGF expression in brain at 10 mg/kg, ip administered for 1 week prior to MPTP challenge by immunohistochemistry; type: functional, organism-based; design: dose 10 mg/kg
[16] = test system: Mus musculus; assay: Toxicity in C57BL/6 mouse assessed as faster drop time at 10 mg/kg, ip by pole test; type: organism-based; design: dose 10 mg/kg, route intraperitoneal; settings: in vivo
[17] = test system: Mus musculus; assay: Antiinflammatory activity against C57BL/6 mouse acute MPTP-induced parkinson's disease model assessed as reduction in cytosolic GFAP localization in brain at 10 mg/kg, ip administered for 1 week prior to MPTP challenge by immunohistochemistry relative to untreated control; type: functional, organism-based; design: dose 10 mg/kg
[18] = test system: Mus musculus; assay: Neurotoxicity in C57BL/6 mouse assessed as reduction of DA transporter expression in substantia nigra at 10 mg/kg, ip by immunohistochemistry; type: toxicity, organism-based; design: dose 10 mg/kg, route intraperitoneal; settings: in vivo
[19] = test system: Mus musculus; assay: Neurotoxicity in C57BL/6 mouse assessed as basal GAP-43 expression in brain at 10 mg/kg, ip by immunohistochemistry; type: toxicity, organism-based; design: dose 10 mg/kg, route intraperitoneal; settings: in vivo
[20] = test system: Mus musculus; assay: Neurotoxicity in C57BL/6 mouse assessed as Nrf2 localization in brain at 10 mg/kg, ip by immunohistochemistry; type: toxicity, organism-based; design: dose 10 mg/kg, route intraperitoneal; settings: in vivo
[21] = test system: Mus musculus; assay: Antiinflammatory activity against C57BL/6 mouse acute MPTP-induced parkinson's disease model assessed as reduction in nitrotyrosine localization in substantia nigra pars compacta at 10 mg/kg, ip administered for 1 week prior to MPTP challenge by immunohistochemistry relative to untreated control; type: functional, organism-based; design: dose 10 mg/kg
[22] = test system: Mus musculus; assay: Neuroprotective activity in C57BL/6 mouse sub-acute MPTP-induced parkinson's disease model assessed as latency time at 10 mg/kg, ip administered for 1 week prior to MPTP challenge by open field test relative to vehicle-treated control; type: functional; settings: route intraperitoneal
[23] = test system: Mus musculus; assay: Neuroprotective activity in C57BL/6 mouse acute MPTP-induced Parkinson's disease model assessed as increase in GAP-43 expression in brain at 10 mg/kg, ip administered for 1 week prior to MPTP challenge by immunohistochemistry; type: functional, organism-based; design: dose 10 mg/kg
[24] = test system: Mus musculus; assay: Neurotoxicity in C57BL/6 mouse assessed as nitrotyrosine localization in substantia nigra pars compacta at 10 mg/kg, ip by immunohistochemistry; type: toxicity, organism-based; design: dose 10 mg/kg, route intraperitoneal; settings: in vivo
[25] = organism: Mus musculus; assay: Antiinflammatory activity against C57BL/6 mouse sub-acute MPTP-induced parkinson's disease model assessed as reduction in nitrotyrosine localization in substantia nigra pars compacta prior to MPTP challenge by immunohistochemistry relative to untreated control; type: functional, organism-based
[26] = test system: Mus musculus; assay: Neuroprotective activity in C57BL/6 mouse sub-acute MPTP-induced parkinson's disease model assessed as bewilderment at 10 mg/kg, ip administered for 1 week prior to MPTP challenge by pole test relative to untreated control; type: functional, organism-based; design: dose 10 mg/kg
[27] = test system: Mus musculus; assay: Toxicity in C57BL/6 mouse assessed as change in body weight at 10 mg/kg, ip; type: organism-based; design: dose 10 mg/kg, route intraperitoneal; settings: in vivo
[28] = test system: Mus musculus; assay: Antiinflammatory activity against C57BL/6 mouse sub-acute MPTP-induced parkinson's disease model assessed as reduction in IL-1beta localization in brain at 10 mg/kg, ip administered for 1 week prior to MPTP challenge measured after 8 days by immunohistochemistry relative to untreated control; type: functional, organism-based; design: dose 10 mg/kg
[29] = test system: Mus musculus; assay: Neuroprotective activity in C57BL/6 mouse acute MPTP-induced parkinson's disease model assessed as increase in NGF expression in brain at 10 mg/kg, ip administered for 1 week prior to MPTP challenge by immunohistochemistry; type: functional, organism-based; design: dose 10 mg/kg
[30] = test system: Mus musculus; assay: Neuroprotective activity in C57BL/6 mouse sub-acute MPTP-induced parkinson's disease model assessed as prevention of loss of DA transporter expression in substantia nigra at 10 mg/kg, ip administered for 1 week prior to MPTP challenge by immunohistochemistry; type: functional, organism-based; design: dose 10 mg/kg
[31] = test system: Mus musculus; assay: Neurotoxicity in C57BL/6 mouse assessed as cytosolic GFAP localization in brain at 10 mg/kg, ip by immunohistochemistry; type: toxicity, organism-based; design: dose 10 mg/kg, route intraperitoneal; settings: in vivo
[32] = test system: Mus musculus; assay: Neuroprotective activity in C57BL/6 mouse sub-acute MPTP-induced parkinson's disease model assessed as increase in GAP-43 expression in brain at 10 mg/kg, ip administered for 1 week prior to MPTP challenge by immunohistochemistry; type: functional, organism-based; design: dose 10 mg/kg
[33] = test system: Mus musculus; assay: Neurotoxicity in C57BL/6 mouse assessed as basal NGF expression in brain at 10 mg/kg, ip by immunohistochemistry; type: toxicity, organism-based; design: dose 10 mg/kg, route intraperitoneal; settings: in vivo
[34] = test system: Mus musculus; assay: Antiinflammatory activity against C57BL/6 mouse acute MPTP-induced parkinson's disease model assessed as increase in Nrf2 localization in brain at 10 mg/kg, ip administered for 1 week prior to MPTP challenge by immunohistochemistry relative to untreated control; type: functional, organism-based; design: dose 10 mg/kg
[35] = test system: Mus musculus; assay: Antiapoptotic activity against DA neurons in C57BL/6 mouse acute MPTP-induced parkinson's disease model assessed as reduction in Bax expression at 10 mg/kg, ip administered for 1 week prior to MPTP challenge measured after 8 days by immunohistochemistry relative to untreated control; type: functional, organism-based; design: dose 10 mg/kg
[36] = test system: Mus musculus; assay: Toxicity in C57BL/6 mouse assessed as Bax expression in brain at 10 mg/kg, ip measured after 8 days by immunohistochemistry; type: organism-based; design: dose 10 mg/kg, route intraperitoneal; settings: in vivo, 192 h
[37] = test system: Mus musculus; assay: Neuroprotective activity in C57BL/6 mouse acute MPTP-induced parkinson's disease model assessed as preservation of neurological behavioural changes at 10 mg/kg, ip administered for 1 week prior to MPTP challenge measured for 3 mins by open field test relative to vehicle-treated control; type: functional, organism-based; design: dose 10 mg/kg
[38] = test system: Mus musculus; assay: Antiparkinsonian activity in C57BL/6 mouse sub-acute MPTP-induced parkinson's disease model assessed as reduction in MPTP-induced change in body weight at 10 mg/kg, ip administered for 1 week prior to MPTP challenge relative to control; type: functional, organism-based; design: dose 10 mg/kg
[39] = test system: Mus musculus; assay: Antiinflammatory activity against C57BL/6 mouse sub-acute MPTP-induced parkinson's disease model assessed as reduction in cytosolic GFAP localization in brain at 10 mg/kg, ip administered for 1 week prior to MPTP challenge by immunohistochemistry relative to untreated control; type: functional, organism-based; design: dose 10 mg/kg
[40] = test system: Mus musculus; assay: Neuroprotective activity in C57BL/6 mouse acute MPTP-induced parkinson's disease model assessed as increase in BDNF expression in brain at 10 mg/kg, ip administered for 1 week prior to MPTP challenge by immunohistochemistry; type: functional, organism-based; design: dose 10 mg/kg
[41] = test system: Mus musculus; assay: Antiapoptotic activity against DA neurons in C57BL/6 mouse sub-acute MPTP-induced parkinson's disease model assessed as reduction in Bax expression at 10 mg/kg, ip administered for 1 week prior to MPTP challenge measured after 8 days by immunohistochemistry relative to untreated control; type: functional, organism-based; design: dose 10 mg/kg

SMILES: C[S@@+]([O-])CCCC/C(=N/OS(=O)(=O)O)S[C@@H]1O[C@H](CO)[C@@H](O)[C@H](O)[C@H]1O (racemic)
- Activity [1]: Non-toxic
- Activity [2]: Active
- Activity [3]: Active
- Activity [4]: Active
- Activity [5]: Non-toxic
- Activity [6]: Active
- Activity [7]: Active
- Activity [8]: Active
- Activity [9]: Active
- Activity [10]: Active
- Activity [11]: Active
- Activity [12]: Non-toxic
- Activity [13]: Active
- Activity [14]: Active
- Activity [15]: Active
- Activity [16]: Non-toxic
- Activity [17]: Active
- Activity [18]: Non-toxic
- Activity [19]: Non-toxic
- Activity [20]: Non-toxic
- Activity [21]: Active
- Time [22]: 0 min
- Activity [23]: Active
- Activity [24]: Non-toxic
- Activity [25]: Active
- Activity [26]: Active
- Activity [27]: Non-toxic
- Activity [28]: Active
- Activity [29]: Active
- Activity [30]: Active
- Activity [31]: Non-toxic
- Activity [32]: Active
- Activity [33]: Non-toxic
- Activity [34]: Active
- Activity [35]: Active
- Activity [36]: Non-toxic
- Activity [37]: Active
- Activity [38]: Active
- Activity [39]: Active
- Activity [40]: Active
- Activity [41]: Active
